These results are taken from ChEMBL document CHEMBL3045138, “Peroxidizing Phytotoxic Activity of Pyrazoles” (J Pestic Sci, 1995).

The test system of test [1] is Scenedesmus acutus. Nature of the test: Growth inhibition of Scenedesmus acutus assessed as packed cell volume per ml of algal culture volume after 16 hr (reference value: 3.8 ul pcv/ml). The test is classed as functional.
Test [2] has as its system Scenedesmus acutus. Nature of the test: Phytotoxicity against Scenedesmus acutus assessed as inhibition of chlorophyll content after 16 hr by spectrophotometry relative to untreated control. The test is classed as functional.

As for `C#CCOc1cc(N2C(=O)C3=C(CCCC3)C2=O)c(F)cc1Cl`, the Activity in the test on Scenedesmus acutus [1] came to 2.4 uL/ml. Also, in the test with Scenedesmus acutus [2], the “inhibition (INH)” value turned out to be 73.6%.

In the case of `C#CCOc1cc(-n2nc(C)c(Cl)c2C)c(Cl)cc1Cl`, the Activity in the test on Scenedesmus acutus [1] was found to be 4 uL/ml. Moreover, the “inhibition (INH)” value in the test with Scenedesmus acutus [2] came out at 0%.

In the case of `C#CCOc1cc(-n2nc(C)c(Cl)c2C)c(Cl)cc1F`, the Activity with Scenedesmus acutus [1] was determined as 3.1 uL/ml. Moreover, in the test on Scenedesmus acutus [2], the “inhibition (INH)” value worked out at 26.7%.

For `C/C=C/COc1cc(-n2nc(C)c(C)c2C)c(F)cc1Cl`, in the test with Scenedesmus acutus [1], the Activity stood at 3.5 uL/ml. In addition, the “inhibition (INH)” value with Scenedesmus acutus [2] was 17.2%.

Consider `C#CCOc1cc(-n2nc(C)c(Cl)c2C)c(F)cc1Cl`, for which the Activity in the test with Scenedesmus acutus [1] turned out to be 2.7 uL/ml. In addition, the “inhibition (INH)” value in the test on Scenedesmus acutus [2] came out at 38.5%.

Turning to `Fc1cc(Cl)c(OC(F)F)cc1-n1nc2c(c1Cl)CCCC2`, the Activity with Scenedesmus acutus [1] is given as 1.5 uL/ml. Moreover, in the test with Scenedesmus acutus [2], the “inhibition (INH)” value was found to be 89.7%.

In the case of `CCOc1cc(Oc2ccc(C(F)(F)F)cc2Cl)ccc1[N+](=O)[O-]` [OXYFLUORFEN], in the test on Scenedesmus acutus [1], the Activity was 1.4 uL/ml. The “inhibition (INH)” value in the test on Scenedesmus acutus [2] turned out to be 92.2%.

In the case of `C#CCOc1cc(-n2nc(C)c([N+](=O)[O-])c2C)c(F)cc1Cl`, the Activity with Scenedesmus acutus [1] stood at 2.5 uL/ml. The “inhibition (INH)” value with Scenedesmus acutus [2] amounted to 46%.

Regarding `N#Cc1cnn(-c2c(Cl)cc(C(F)(F)F)cc2Cl)c1N`, the Activity in the test with Scenedesmus acutus [1] came out at 2 uL/ml. For the same molecule, the “inhibition (INH)” value with Scenedesmus acutus [2] is reported as 61%.

As for `COc1cc(-n2nc(C)c(C)c2C)c(F)cc1Cl`, the Activity in the test on Scenedesmus acutus [1] is on record as 4.1 uL/ml. The “inhibition (INH)” value in the test with Scenedesmus acutus [2] was found to be 0%.

With `Cc1cc(C)n(-c2ccc(Cl)cc2F)n1`, the Activity in the test on Scenedesmus acutus [1] came out at 4.1 uL/ml. In the test with Scenedesmus acutus [2], the “inhibition (INH)” value came to 0%.

As to `C#CCOc1cc(-n2nc(CC)c(Cl)c2CC)c(F)cc1Cl`, the Activity with Scenedesmus acutus [1] was 2.7 uL/ml. Moreover, in the test on Scenedesmus acutus [2], the “inhibition (INH)” value is listed as 30.3%.

Turning to `Cc1nn(-c2cc(OC(C)C)c(Cl)cc2F)c(C)c1[N+](=O)[O-]`, in the test with Scenedesmus acutus [1], the Activity amounted to 3.5 uL/ml. Also, the “inhibition (INH)” value in the test on Scenedesmus acutus [2] is reported as 17.7%.

For the molecule `Cc1nn(-c2cc(OC(C)C)c(Cl)cc2F)c(C)c1C`, in the test with Scenedesmus acutus [1], the Activity is 3.9 uL/ml. In addition, the “inhibition (INH)” value with Scenedesmus acutus [2] came out at 11.1%.

As for `O=C1C2=C(CCCC2)C(=O)N1c1ccc(Cl)cc1` [CHLOROPHTHALIUM], the Activity with Scenedesmus acutus [1] stood at 2.5 uL/ml. Also, the “inhibition (INH)” value with Scenedesmus acutus [2] is given as 72.3%.
